Test results from BindingDB's records for doi:10.1021/jm00045a012 (Dupont Pharmaceuticals, 1994).

Molecular target: Stromelysin-1 (MMP-3) (Homo sapiens) (UniProt P08254)
Experiment: Tested for the inhibition of prostromelysin activation with no preincubation period

Sequence of Stromelysin-1 (MMP-3) (Homo sapiens) (P08254 whole entry, looked up): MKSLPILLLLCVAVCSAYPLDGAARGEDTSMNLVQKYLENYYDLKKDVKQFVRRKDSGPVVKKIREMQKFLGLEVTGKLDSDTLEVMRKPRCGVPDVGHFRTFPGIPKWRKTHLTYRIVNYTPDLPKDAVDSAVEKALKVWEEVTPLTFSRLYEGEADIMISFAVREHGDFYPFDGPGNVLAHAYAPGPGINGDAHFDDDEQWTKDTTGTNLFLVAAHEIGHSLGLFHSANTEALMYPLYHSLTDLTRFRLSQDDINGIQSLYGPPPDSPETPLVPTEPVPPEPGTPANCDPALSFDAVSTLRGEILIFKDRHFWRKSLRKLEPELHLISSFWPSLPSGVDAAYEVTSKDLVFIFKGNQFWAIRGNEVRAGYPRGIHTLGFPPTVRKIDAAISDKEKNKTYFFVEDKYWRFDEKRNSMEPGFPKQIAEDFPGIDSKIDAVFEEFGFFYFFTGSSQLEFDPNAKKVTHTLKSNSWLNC

Row | IC50 | SMILES
1 | 62 µM | COc1ccc(-n2sc3ncccc3c2=O)c(OC)c1 [2-(2,4-Dimethoxy-phenyl)-isothiazolo[5,4-b]pyridin-3-one]
2 | 53 µM | COc1ccc(OC)c(-n2sc3ncccc3c2=O)c1 [2-(2,5-Dimethoxy-phenyl)-isothiazolo[5,4-b]pyridin-3-one]
